Key:
barnyard grass [1] = test: Test Example 3: herbicidal effect by foliage application, Wagner pot (Table 18, symbol H); assay type: in vivo, barnyard grass (Echinochloa crus-galli); details: 320 g/ha
Outline: (§1)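 Plants were sown in alluvial soil held under 0.1–0.5 cm standing water and grown 14 days in a greenhouse at 25–30 °C. An emulsifiable formulation, water-diluted to the set dose, was then sprayed onto the foliage, and effects were scored three weeks later using previously defined criteria.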

Chinese sprangletop = test: Test Example 3: herbicidal effect by foliage application, Wagner pot (Table 18, symbol D); assay type: in vivo, chinese sprangletop (Leptochloa chinensis); details: 320 g/ha
Outline: as §1

rice flat sedge = test: Test Example 3: herbicidal effect by foliage application, Wagner pot (Table 18, symbol E); assay type: in vivo, rice flat sedge (Cyperus iria); details: 320 g/ha
Outline: as §1

southern crabgrass [2] = test: Test Example 4: herbicidal effect by soil treatment (Table 19, symbol F); assay type: in vivo, southern crabgrass (Digitaria ciliaris); details: 320 g/ha
Outline: (§2)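 Soil-surface application: an emulsion agent diluted with water to the predetermined dose is sprayed uniformly over seeds lying under roughly 1.5 cm of sterilized diluvial soil. Boxes stay in a greenhouse at 25° C. to 30° C. Three weeks later, each species is graded on previously defined criteria.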

green foxtail [3] = test: Test Example 4: herbicidal effect by soil treatment (Table 19, symbol G); assay type: in vivo, green foxtail (Setaria viridis); details: 320 g/ha
Outline: as §2

barnyard grass [4] = test: Test Example 4: herbicidal effect by soil treatment (Table 19, symbol H); assay type: in vivo, barnyard grass (Echinochloa crus-galli); details: 320 g/ha
Outline: as §2

wild oat [5] = test: Test Example 4: herbicidal effect by soil treatment (Table 19, symbol I); assay type: in vivo, wild oat (Avena fatua); details: 320 g/ha
Outline: as §2

blackgrass [6] = test: Test Example 4: herbicidal effect by soil treatment (Table 19, symbol J); assay type: in vivo, blackgrass (Alopecurus myosuroides); details: 320 g/ha
Outline: as §2

Italian ryegrass [7] = test: Test Example 4: herbicidal effect by soil treatment (Table 19, symbol K); assay type: in vivo, Italian ryegrass (Lolium multiflorum); details: 320 g/ha
Outline: as §2

windgrass [8] = test: Test Example 4: herbicidal effect by soil treatment (Table 19, symbol L); assay type: in vivo, windgrass (Apera spica-venti); details: 320 g/ha
Outline: as §2

velvetleaf [9] = test: Test Example 4: herbicidal effect by soil treatment (Table 19, symbol M); assay type: in vivo, velvetleaf (Abutilon theophrasti); details: 320 g/ha
Outline: as §2

redroot pigweed = test: Test Example 4: herbicidal effect by soil treatment (Table 19, symbol N); assay type: in vivo, redroot pigweed (Amaranthus retroflexus); details: 320 g/ha
Outline: as §2

lambsquarters [10] = test: Test Example 4: herbicidal effect by soil treatment (Table 19, symbol O); assay type: in vivo, lambsquarters (Chenopodium album); details: 320 g/ha
Outline: as §2

chickweed = test: Test Example 4: herbicidal effect by soil treatment (Table 19, symbol P); assay type: in vivo, common chickweed (Stellaria media); details: 320 g/ha
Outline: as §2

persian speedwell [11] = test: Test Example 4: herbicidal effect by soil treatment (Table 19, symbol R); assay type: in vivo, Persian speedwell (Veronica persica); details: 320 g/ha
Outline: as §2

southern crabgrass [12] = test: Test Example 5: herbicidal effect by foliage application, plastic box (Table 20, symbol F); assay type: in vivo, southern crabgrass (Digitaria ciliaris); details: foliage application, 320 g/ha, 3 weeks after application
Outline: (§3)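 Sow seeds spot-wise in sterilized diluvial soil; cover with ~1.5 cm soil. Grow 14 days in greenhouse, 25° C. to 30° C. Spray foliage with emulsion diluted to predetermined amount. Rate effect after 3 weeks.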

green foxtail [13] = test: Test Example 5: herbicidal effect by foliage application, plastic box (Table 20, symbol G); assay type: in vivo, green foxtail (Setaria viridis); details: foliage application, 320 g/ha, 3 weeks after application
Outline: as §3

barnyard grass [14] = test: Test Example 5: herbicidal effect by foliage application, plastic box (Table 20, symbol H); assay type: in vivo, barnyard grass (Echinochloa crus-galli); details: foliage application, 320 g/ha, 3 weeks after application
Outline: as §3

wild oat [15] = test: Test Example 5: herbicidal effect by foliage application, plastic box (Table 20, symbol I); assay type: in vivo, wild oat (Avena fatua); details: foliage application, 320 g/ha, 3 weeks after application
Outline: as §3

blackgrass [16] = test: Test Example 5: herbicidal effect by foliage application, plastic box (Table 20, symbol J); assay type: in vivo, blackgrass (Alopecurus myosuroides); details: foliage application, 320 g/ha, 3 weeks after application
Outline: as §3

Italian ryegrass [17] = test: Test Example 5: herbicidal effect by foliage application, plastic box (Table 20, symbol K); assay type: in vivo, Italian ryegrass (Lolium multiflorum); details: foliage application, 320 g/ha, 3 weeks after application
Outline: as §3

windgrass [18] = test: Test Example 5: herbicidal effect by foliage application, plastic box (Table 20, symbol L); assay type: in vivo, windgrass (Apera spica-venti); details: foliage application, 320 g/ha, 3 weeks after application
Outline: as §3

velvetleaf [19] = test: Test Example 5: herbicidal effect by foliage application, plastic box (Table 20, symbol M); assay type: in vivo, velvetleaf (Abutilon theophrasti); details: foliage application, 320 g/ha, 3 weeks after application
Outline: as §3

lambsquarters [20] = test: Test Example 5: herbicidal effect by foliage application, plastic box (Table 20, symbol O); assay type: in vivo, lambsquarters (Chenopodium album); details: foliage application, 320 g/ha, 3 weeks after application
Outline: as §3

persian speedwell [21] = test: Test Example 5: herbicidal effect by foliage application, plastic box (Table 20, symbol R); assay type: in vivo, Persian speedwell (Veronica persica); details: foliage application, 320 g/ha, 3 weeks after application
Outline: as §3

Question: How did the “herbicidal effect on H (barnyard grass), rating 0-5” value (barnyard grass [1]) turn out when `Cc1nn(C)c(=O)c(-c2c(-c3ccc(OC(F)(F)F)cc3)sc3ccc(F)cc23)c1O` [2-045] was run?
Answer: Its value is 5 (Herbicidal rate of 90% or more (almost completely withered)).

Question: What about the “herbicidal effect on D (Chinese sprangletop), rating 0-5” value (Chinese sprangletop) of the same compound?
Answer: The value was 2 (Herbicidal rate of 20% or more and less than 40%).

Question: And the “herbicidal effect on E (rice flat sedge), rating 0-5” value (rice flat sedge)?
Answer: Its value is 5 (Herbicidal rate of 90% or more (almost completely withered)).

Question: And the “herbicidal effect rating, F: southern crabgrass” value (southern crabgrass [2])?
Answer: Its value is 3 (Herbicidal rate of 40% or more and less than 70%).

Question: What about the “herbicidal effect rating, G: green foxtail” value (green foxtail [3]) of the same compound?
Answer: The value was 4 (Herbicidal rate of 70% or more and less than 90%).

Question: What about the “herbicidal effect rating, H: barnyard grass” value (barnyard grass [4]) of the same compound?
Answer: Its value is 1 (Herbicidal rate of 5% or more and less than 20%).

Question: And the “herbicidal effect rating, I: wild oat” value (wild oat [5])?
Answer: The value was 0 (Herbicidal rate of 5% or less (almost no effect)).

Question: What about the “herbicidal effect rating, J: blackgrass” value (blackgrass [6]) of the same compound?
Answer: Its value is 0 (Herbicidal rate of 5% or less (almost no effect)).

Question: And the “herbicidal effect rating, K: Italian ryegrass” value (Italian ryegrass [7])?
Answer: The value was 5 (Herbicidal rate of 90% or more (almost completely withered)).

Question: What about the “herbicidal effect rating, L: windgrass” value (windgrass [8]) of the same compound?
Answer: Its value is 0 (Herbicidal rate of 5% or less (almost no effect)).

Question: And the “herbicidal effect rating, M: velvetleaf” value (velvetleaf [9])?
Answer: Its value is 4 (Herbicidal rate of 70% or more and less than 90%).

Question: And the “herbicidal effect rating, N: redroot pigweed” value (redroot pigweed)?
Answer: The value was 4 (Herbicidal rate of 70% or more and less than 90%).

Question: And the “herbicidal effect rating, O: lambsquarters” value (lambsquarters [10])?
Answer: The value was 5 (Herbicidal rate of 90% or more (almost completely withered)).

Question: What about the “herbicidal effect rating, P: chickweed” value (chickweed) of the same compound?
Answer: Its value is 5 (Herbicidal rate of 90% or more (almost completely withered)).

Question: And the “herbicidal effect rating, R: persian speedwell” value (persian speedwell [11])?
Answer: The value was 5 (Herbicidal rate of 90% or more (almost completely withered)).

Question: And the “effect on southern crabgrass (F)” value (southern crabgrass [12])?
Answer: The value was 0 (Herbicidal rate of 5% or less (almost no effect)).

Question: What about the “effect on green foxtail (G)” value (green foxtail [13]) of the same compound?
Answer: Its value is 5 (Herbicidal rate of 90% or more (almost completely withered)).

Question: What about the “effect on barnyard grass (H)” value (barnyard grass [14]) of the same compound?
Answer: The value was 5 (Herbicidal rate of 90% or more (almost completely withered)).

Question: And the “effect on wild oat (I)” value (wild oat [15])?
Answer: The value was 0 (Herbicidal rate of 5% or less (almost no effect)).

Question: What about the “effect on blackgrass (J)” value (blackgrass [16]) of the same compound?
Answer: The value was 0 (Herbicidal rate of 5% or less (almost no effect)).

Question: What about the “effect on Italian ryegrass (K)” value (Italian ryegrass [17]) of the same compound?
Answer: The value was 5 (Herbicidal rate of 90% or more (almost completely withered)).

Question: And the “effect on windgrass (L)” value (windgrass [18])?
Answer: Its value is 5 (Herbicidal rate of 90% or more (almost completely withered)).

Question: What about the “effect on velvetleaf (M)” value (velvetleaf [19]) of the same compound?
Answer: Its value is 5 (Herbicidal rate of 90% or more (almost completely withered)).

Question: What about the “effect on lambsquarters (O)” value (lambsquarters [20]) of the same compound?
Answer: The value was 5 (Herbicidal rate of 90% or more (almost completely withered)).

Question: And the “effect on persian speedwell (R)” value (persian speedwell [21])?
Answer: Its value is 5 (Herbicidal rate of 90% or more (almost completely withered)).
